Measurements published in patent US5034510A, “Antibacterial substance” (Shin-Etsu Chemical Co., Ltd., priority 1986, dated 1991).
Where no end group is shown, it is not given here.

Legend:
Assay in all cases: MIC by broth dilution method
Type in all cases: cell-based
[1] = test system: Streptococcus hemolyticus; conditions: S. hemo
Experimental: (§1) Using the substances finally obtained in the above-described Experiments 35 to 42 and having no blocking group, MIC (minimum growth inhibitory concentration) against various bacteria was examined according to the broth dilution method, and the antibacterial activities were evaluated.
(§2) H--(1-23)--NH(CH2)7 CH3 was synthesized according to the same procedures as described in Experiments 1 to 35, and the antibacterial activities thereof against various bacteria were examined in the same manner as in Example 1.

Escherichia coli NIHJ = conditions: E. coli NIHJ
Experimental: as §1, §2

Proteus mirabilis 129 = conditions: P. mira 129
Experimental: as §1, §2

Pseudomonas aeruginosa = conditions: P. aeru
Experimental: as §1, §2

[2] = test system: Salmonella enteritidis IFO 3313; conditions: S. ent 3313
Experimental: as §1, §2

Micrococcus luteus ML II = conditions: M. lute ML II
Experimental: as §1, §2

Proteus mirabilis 1287 = conditions: P. mira 1287
Experimental: as §1, §2

[3] = test system: Bacillus subtilis PCI 219; conditions: B. sub 219
Experimental: as §1, §2

E. coli JC-2 = test system: E. coli JC-2
Experimental: as §1, §2

[4] = test system: Staphylococcus aureus FDA 209P; conditions: S. aure 209-P
Experimental: as §1, §2

[5] = test system: Enterobacter aerogenes IFO 13545; conditions: E. aero 13534
Experimental: as §1, §2

[6] = test system: Pseudomonas aeruginosa 99; conditions: P. aeru 99
Experimental: as §1, §2

Escherichia coli D 21 = test system: Escherichia coli D 21
Experimental: as §1, §2

[7] = test system: Pseudomonas aeruguinosa OT 97; conditions: P. aeru OT 97
Experimental: as §1, §2

Question: Which results are given for “RWKIFKKIEKMGRNIRDGIVKAGPAIEVLGSAKAI-NH2 [Synthetic lepidopteran A, lepidopteran A, reference compound]”?
Answer: MIC ([1]; Table 1): -- (Symbol "--" is meant to be MIC > 250 mcg/ml); MIC ([1]; Table 2): -- (Symbol "--" is meant to be MIC > 250 mcg/ml); MIC (Escherichia coli NIHJ; Table 1): 4 µg/mL; MIC (Escherichia coli NIHJ; Table 2): 4 µg/mL; MIC (Proteus mirabilis 129; Table 1): 32 µg/mL; MIC (Proteus mirabilis 129; Table 2): 32 µg/mL; MIC (Pseudomonas aeruginosa; Table 1): 8 µg/mL; MIC (Pseudomonas aeruginosa; Table 2): 8 µg/mL; MIC ([2]; Table 1): 4 µg/mL; MIC ([2]; Table 2): 4 µg/mL; MIC (Micrococcus luteus ML II; Table 1): 2 µg/mL; MIC (Micrococcus luteus ML II; Table 2): 2 µg/mL; MIC (Proteus mirabilis 1287; Table 1): 32 µg/mL; MIC (Proteus mirabilis 1287; Table 2): 32 µg/mL; MIC ([3]; Table 1): 32 µg/mL; MIC ([3]; Table 2): 32 µg/mL; MIC (E. coli JC-2; Table 1): 4 µg/mL; MIC (E. coli JC-2; Table 2): 4 µg/mL; MIC ([4]; Table 1): 8 µg/mL; MIC ([4]; Table 2): 125 µg/mL; MIC ([5]; Table 1): 8 µg/mL; MIC ([5]; Table 2): 8 µg/mL; MIC ([6]; Table 1): 8 µg/mL; MIC ([6]; Table 2): 8 µg/mL; MIC (Escherichia coli D 21; E. coli D 21, Table 1): 2 µg/mL; MIC (Escherichia coli D 21; E. coli D, Table 2): 2 µg/mL; MIC ([7]; Table 1): 8 µg/mL; MIC ([7]; Table 2): 8 µg/mL
